Test results taken from patent US20240383908A1, “SYNTHESIS AND APPLICATION OF PHOSPHATASE DEGRADER” (HINOVA PHARMACEUTICALS INC., priority 2021, published 2024).

What was measured:
[1] = biological target: T1, SHP2 protein (Homo sapiens, UniProt Q06124); assay: Degradation activity on SHP2 protein in MIA Paca-2 cells (Western blot, DC50); format: cell-based; design: endogenous in cells; host or cells: MIA Paca-2 cells; details: read-out: Degradation activity for differenct cell lines MIA Paca-2 (DC50)
T1 sequence (Q06124 1-593): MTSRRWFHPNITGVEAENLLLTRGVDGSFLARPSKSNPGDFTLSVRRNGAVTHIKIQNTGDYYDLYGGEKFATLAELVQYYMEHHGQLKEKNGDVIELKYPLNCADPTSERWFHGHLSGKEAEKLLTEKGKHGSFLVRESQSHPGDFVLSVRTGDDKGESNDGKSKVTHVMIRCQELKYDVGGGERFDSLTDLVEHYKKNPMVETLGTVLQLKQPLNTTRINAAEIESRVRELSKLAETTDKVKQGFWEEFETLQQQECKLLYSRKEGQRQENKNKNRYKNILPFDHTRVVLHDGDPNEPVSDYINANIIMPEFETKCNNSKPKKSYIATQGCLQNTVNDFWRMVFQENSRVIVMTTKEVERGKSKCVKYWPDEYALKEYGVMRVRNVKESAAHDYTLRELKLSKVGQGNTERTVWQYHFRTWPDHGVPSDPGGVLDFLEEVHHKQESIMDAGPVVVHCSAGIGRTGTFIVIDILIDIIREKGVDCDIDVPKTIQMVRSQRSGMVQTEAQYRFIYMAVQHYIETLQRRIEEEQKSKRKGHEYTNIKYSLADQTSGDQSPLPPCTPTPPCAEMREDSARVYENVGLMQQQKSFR
Outline: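 DC50 is the concentration degrading 50% of SHP2 relative to DMSO control. It was derived by fitting Western blot band densitometry (anti-SHP2, GAPDH reference) from cells exposed 24 h to 0.1–100 nM compound in 0.1% DMSO.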

[2] = biological target: T1, SHP2 protein; assay: Degradation activity on SHP2 protein in MV-411 cells (Western blot, DC50); format: cell-based; design: endogenous in cells; details: MV411 cells, 24 hours, read-out: Degradation activity for differenct cell lines MV411 (DC50)
Outline: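 Western blot of SHP2 (GAPDH loading control, 30 μg protein/lane) in lysates of MV-411 cells exposed 24 h to final compound concentrations of 100, 10, 3, 1, 0.3 and 0.1 nM (0.1% DMSO). Degradation relative to DMSO set at 100%; DC50 derived by curve fitting.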

Row | Structure (SMILES) | DC50 [1] [nM] | DC50 [2] [nM]
1 | CC1(N)CCN(c2cnc(Sc3cccc(NC(=O)CCCCCCCO[C@H]4CCN(c5ccc(C(=O)NCc6ccc7c(c6)CN(C6CCC(=O)NC6=O)C7=O)nn5)C4)c3)cn2)CC1 (stereo partly drawn) [Compound 102] | < 100 | < 100
2 | CC1(N)CCN(c2cnc(Sc3cccc(NC(=O)CCCCCCCOC4CCN(c5ccc(C(=O)NCc6ccc7c(c6)CN(C6CCC(=O)NC6=O)C7=O)nn5)CC4F)c3)cn2)CC1 (stereo not drawn) [Compound 146] | < 100 | < 100
3 | CC1(N)CCN(c2cnc(Sc3cccc(NC(=O)CCCCCOc4ccc(C5CC5C(=O)NCc5ccc6c(c5)C(=O)N(C5CCC(=O)NC5=O)C6)cc4)c3)cn2)CC1 (stereo not drawn) [Compound 189, 2-(4-((6-((3-((5-(4-amino-4-methylpyridin-1-yl)pyrazin-2-yl)thio)phenyl)amino)-6-oxohexyl)oxy)phenyl)-N-((2-(2,6-dioxopiperidin-3-yl)-3-oxoisoindol-5-yl)methyl)cyclopropane-1-formamide] | > 1000 | < 100
4 | CC1(CN)CCN(c2cnc(Sc3cccc(NC(=O)CCC(=O)N4CCN(CCCCCCCCC(=O)NCc5ccc6c(c5)CN(C5CCC(=O)NC5=O)C6=O)CC4)c3Cl)cn2)CC1 (stereo not drawn) [Compound 15, 9-(4-(4-((3-((5-(4-(aminomethyl)-4-methylpyridin-1-yl)pyrazin-2-yl)thio)-2-chlorophenyl)amino)-4-oxobutyryl)piperazin-1-yl)-N-((2-(2,6-dioxopiperidin-3-yl)-1-oxoisoindol-5-yl)methyl)nonanamide] | – | < 100
5 | CC1(N)CCN(c2cnc(Sc3cccc(NC(=O)CCCCCCCCCCCNc4ccc(C(=O)NCc5ccc6c(c5)CN(C5CCC(=O)NC5=O)C6=O)nn4)c3)cn2)CC1 (stereo not drawn) [Compound 195] | – | 100 to 1000
6 | CN[C@H](C)C(=O)N[C@@H](C(=O)N1C[C@@H](NC(=O)c2ccc(N3CC(C)N(CCCCCCCCC(=O)Nc4cccc(Sc5cnc(N6CCC(C)(N)CC6)cn5)c4)C(C)C3)nn2)C[C@@H]1C(=O)Nc1c(F)cccc1F)C(C)(C)C (stereo partly drawn) [Compound 139] | – | > 1000
7 | CC(C)(C)OC(=O)NCC1(O)C2CCC1CN(c1cnc(Sc3cccc(NC(=O)CCCCCCN4CC5(CCN(c6ccc(C(=O)NCc7ccc8c(c7)CN(C7CCC(=O)NC7=O)C8=O)nn6)C5)C4)c3)cn1)C2 (stereo not drawn) [Compound 203] | – | > 1000
8 | CC1(N)CCN(c2cnc(Sc3cccc(NC(=O)CCC(=O)NCCOCCOCC(=O)Nc4cccc5c4CN(C4CCC(=O)NC4=O)C5=O)c3)cn2)CC1 (stereo not drawn) [Compound 29] | – | > 1000
9 | CC1(N)CCN(c2cnc(Sc3cccc(NC(=O)COCCOCCN4CCN(c5ncc(C(=O)NCc6ccc7c(c6)CN(C6CCC(=O)NC6=O)C7=O)cn5)CC4)c3)cn2)CC1 (stereo not drawn) [Compound 67] | – | > 1000

Results, then the compound that gave them:

Row | DC50 [1] [nM] | DC50 [2] [nM] | Structure (SMILES)
10 | > 1000 | < 100 | CC1(N)CCN(c2cnc(Sc3cccc(NC(=O)CCCCCCN4CC5(CCN(c6cnc(C(=O)NCc7ccc8c(c7)CN(C7CCC(=O)NC7=O)C8=O)cn6)C5)C4)c3)cn2)CC1 (stereo not drawn) [Compound 179]
11 | < 100 | < 100 | CC1(N)CCN(c2cnc(Sc3cccc(NC(=O)CCCCCCN4CC5(CCN(c6ccc(C(=O)NCc7ccc8c(c7)CN(C7CCC(=O)NC7=O)C8=O)cn6)C5)C4)c3)cn2)CC1 (stereo not drawn) [Compound 155]
12 | 100 to 1000 | < 100 | CC1(N)CCN(c2cnc(Sc3cccc(NC(=O)CCCCCCN4CC5(CCN(c6ncc(C(=O)NCc7ccc8c(c7)CN(C7CCC(=O)NC7=O)C8=O)cc6C(F)(F)F)C5)C4)c3)cn2)CC1 (stereo not drawn) [Compound 170]
13 | – | 100 to 1000 | CC1(N)CCN(c2cnc(Sc3cccc(NC(=O)CCN4CC5(CCN(CCCCCC(=O)NCc6cccc7c6CN(C6CCC(=O)NC6=O)C7=O)C5)C4)c3)cn2)CC1 (stereo not drawn) [Compound 45]
14 | – | > 1000 | CC1(N)CCN(c2cnc(Sc3cccc(NC(=O)C4CCN(CCCCCCCCCCC(=O)NCc5ccc6c(c5)CN(C5CCC(=O)NC5=O)C6=O)CC4)c3)cn2)CC1 (stereo not drawn) [Compound 37]
15 | – | > 1000 | CC1(N)CCN(c2cnc(Sc3cccc(NC(=O)/C=C/C(=O)N4CCC5(CN(CCCCCCC(=O)NCc6ccc7c(c6)CN(C6CCC(=O)NC6=O)C7=O)C5)C4)c3)cn2)CC1 (stereo not drawn) [Compound 151]
